Patent EP4803517A1, “PROTEIN TRANSLATION INHIBITOR” (Duality Biologics (Shanghai) Co., Ltd., priority 2023, dated 2025)
Read-outs that look alike come from different tables or passages of the source. Each block holds one molecule with its values, some of them ahead of it.

How the values were obtained:
Experiment in all cases: Inhibition of in vitro proliferation of tumor cells (CTG, CellTiter-Glo)
Format in all cases: cell-based
NUGC-4 = conditions: Homo sapiens, 120 h; racemates; NUGC-4 cells; 5 days of culture; CTG reagent; read-out: Proliferation inhibitory activity IC50 (nM) NUGC-4
Description: (§1) Assay objective: To detect the inhibitory effects of the drug compounds on tumor cell proliferation, for example, the inhibitory activity thereof on the in vitro proliferation of NCI-H716, NCI-H1975, NCI-H1373, NCI-H647, NCI-H520, BT474, DLD-1, NCI-N87, NUGC-4, SNU-423, MKN-45, SK-OV-3, OVCAR3, Ls174T, HCC1954, and ES2 tumor cells. The cells were treated with the compounds at different concentrations in vitro. After 5 days of culture, the proliferation of the cells was detected using the CTG (CellTiter-Glo® Luminescent Cell Viability Assay, Promega, Cat. No. G7558) reagent, and the in vitro activity of the compounds was evaluated based on the IC50 value. 1. Cell preparation: NCI-H716, NCI-H1975, NCI-H1373, NCI-H647, NCI-H520, BT474, DLD-1, NCI-N87, NUGC-4, SNU-423, MKN-45, SK-OV-3, OVCAR3, Ls174T, HCC1954, and ES2 cells in the logarithmic phase were each taken, washed once with PBS, and then digested with 2-3 mL of trypsin for 2-3 min. After the cells were digested completely, 10-15 mL of a cell culture medium was added to elute the digested cells. The eluate was centrifuged at 1000 rpm for 5 min, and the supernatant was discarded. Subsequently, the resulting cells were resuspended in 10-20 mL of the cell culture medium to prepare a single-cell suspension. 2. Cell plating: The NCI-H716, NCI-H1975, NCI-H1373, NCI-H647, NCI-H520, NCI-N87, BT474, DLD-1, NCI-N87, NUGC-4, SNU-423, MKN-45, SK-OV-3, OVCAR3, Ls174T, HCC1954, and ES2 single-cell suspensions were each well mixed and adjusted to a viable cell density of 6 × 10^4 cells/mL with the cell culture medium. The density-adjusted cell suspensions were each well mixed and added to a 96-well cell culture plate at 50 µL/well. The culture plate was incubated in an incubator overnight (37 °C, 5% CO2). 3. Compound preparation: Each compound was dissolved in DMSO to prepare a stock solution with an initial concentration of 10 mM. There were 6 concentrations in total for the small molecule compound: 1000 nM, 333 nM, 111 nM, 37.03 nM, 12.34 nM, and 4.11 nM. 4. Sample addition: The prepared test samples at different concentrations were added to the culture plate, with two duplicate wells set for each sample. The culture plate was incubated in the incubator for 5 days (37 °C, 5% CO2). 5. Color development: The 96-well cell culture plate was taken out, and 50 µL of the CTG reagent was added to each well. The plate was then incubated at room temperature for 10 min. 6. Plate reading: The 96-well cell culture plate was taken out and placed in a microplate reader, and the chemiluminescence was measured using the microplate reader. 7. Data analysis: The cell viability was calculated according to the formula: (Lumtest drug - Lumblank control)/(Lumsolvent blank control - Lumblank control) × 100%. Using a nonlinear regression model in the GraphPad Prism software, a sigmoidal dose-survival rate curve was plotted, and the IC50 values were calculated. Table 2. IC50 values for the inhibition of the in vitro proliferation of tumor cells by the racemates of the small molecule compounds of the present application

NCI-N87 = conditions: Homo sapiens, 120 h, racemates, 5 days of culture, CTG reagent, read-out: Proliferation inhibitory activity IC50 (nM) NCI-N87
Description: as §1

SNU-423 = conditions: Homo sapiens, 120 h; racemates; SNU-423 cells; 5 days of culture; CTG reagent; read-out: Proliferation inhibitory activity IC50 (nM) SNU-423
Description: as §1

SK-OV-3 = conditions: Homo sapiens, 120 h; racemates; SK-OV-3 cells; 5 days of culture; CTG reagent; read-out: Proliferation inhibitory activity IC50 (nM) SK-OV-3
Description: as §1

BT474 = conditions: Homo sapiens, BT-474, 120 h, 5 days of culture, CTG reagent, read-out: Proliferation inhibitory activity IC50 (nM) BT474
Description: as §1

MKN-45 = conditions: Homo sapiens, 120 h; racemates; MKN-45 cells; 5 days of culture; CTG reagent; read-out: Proliferation inhibitory activity IC50 (nM) MKN-45
Description: as §1

Ls174T = conditions: Homo sapiens, 120 h, racemates, 5 days of culture, CTG reagent, read-out: Proliferation inhibitory activity IC50 (nM) Ls174T
Description: as §1

DLD-1 = conditions: Homo sapiens, 120 h, DLD-1 cells, 5 days of culture, CTG reagent, read-out: Proliferation inhibitory activity IC50 (nM) DLD-1
Description: as §1

HCC1954 = conditions: Homo sapiens, 120 h, racemates, 5 days of culture, CTG reagent, read-out: Proliferation inhibitory activity IC50 (nM) HCC1954
Description: as §1

[1] = Table 3, chirally resolved compounds

IC50 (NUGC-4): 1.98 nM
IC50 (NCI-N87): 2.07 nM
IC50 (SNU-423): 3.67 nM
IC50 (SK-OV-3): 2.05 nM
IC50 (BT474; racemates): 3.33 nM
SMILES: COC(=O)[C@H]1[C@@H](O)[C@@]2(O)c3c(OC)cc(-c4ncco4)cc3O[C@@]2(c2ccc(C#N)cc2)[C@@H]1c1cccc(N)c1 (racemic) [Racemate of compound 2]

IC50 (NUGC-4): 3.51 nM
IC50 (NCI-N87): 3.63 nM
IC50 (SNU-423): 8.18 nM
SMILES: COC(=O)[C@H]1[C@@H](O)[C@@]2(O)c3c(OC)cc(-c4cnco4)cc3O[C@@]2(c2ccc(C#N)cc2)[C@@H]1c1cccc(N)c1 (racemic) [Racemate of compound 3]

IC50 (MKN-45): 1.4 nM
IC50 (BT474; racemates): 3.04 nM
SMILES: COc1cc(-c2ncco2)cc2c1[C@]1(O)[C@H](O)[C@H](C(=O)N(C)OC)[C@@H](c3cccc(N)c3)[C@]1(c1ccc(C#N)cc1)O2 (racemic) [Racemate of compound 4]

IC50 (MKN-45): 0.695 nM
IC50 (BT474; racemates): 0.829 nM
SMILES: COc1ccc([C@@]23Oc4cc(-c5ncco5)cc(OC)c4[C@]2(O)[C@@H](CN)[C@H](CO)[C@H]3c2ccccc2)cc1 (racemic) [Racemate of compound 9]

IC50 (MKN-45): 2.65 nM
SMILES: COc1cc(-c2ncco2)cc2c1[C@]1(O)[C@H](O)[C@H](C(=O)N(C)OC)[C@@H](c3cccc(O)c3)[C@]1(c1ccc(C#N)cc1)O2 (racemic) [Racemate of compound 15]

IC50 (MKN-45): 2.34 nM
SMILES: COc1cc(-c2ncco2)cc2c1[C@]1(O)[C@H](O)[C@H](C(=O)N3CC(O)C3)[C@@H](c3ccccc3)[C@]1(c1ccc(C#N)cc1)O2 (racemic) [Racemate of compound 16]

IC50 (MKN-45): 1.5 nM
SMILES: COc1cc(-c2ncc(C#N)cn2)cc2c1[C@]1(O)[C@H](O)[C@H](C(=O)N(C)OC)[C@@H](c3cccc(N)c3)[C@]1(c1ccc(C#N)cc1)O2 (racemic) [Racemate of compound 30]

IC50 (MKN-45): 1.32 nM
SMILES: COc1cnc(-c2cc(OC)c3c(c2)O[C@@]2(c4ccc(C#N)cc4)[C@H](c4cccc(N)c4)[C@@H](C(=O)N(C)OC)[C@@H](O)[C@@]32O)nc1 (racemic) [Racemate of compound 31]

IC50 (Ls174T): 5.45 nM
SMILES: COc1cc(-c2ncc(C(F)(F)F)cn2)cc2c1[C@]1(O)[C@H](O)[C@H](C(=O)N(C)OC)[C@@H](c3cccc(N)c3)[C@]1(c1ccc(C#N)cc1)O2 (racemic) [Racemate of compound 32]

IC50 (MKN-45): 2 nM
SMILES: COc1cnc(-c2cc(OC)c3c(c2)O[C@@]2(c4ccc(C#N)cc4)[C@H](c4cccc(N)c4)[C@@H](C(=O)N(C)OC)[C@@H](O)[C@@]32O)cn1 (racemic) [Racemate of compound 43]

IC50 (BT474; racemates): 2.25 nM
SMILES: COc1ccc([C@@]23Oc4cc(-c5ncco5)cc(OC)c4[C@]2(O)[C@H](O)[C@H](C(=O)N2CC(O)C2)[C@H]3c2ccccc2)cc1 (racemic) [Racemate of compound 48]

IC50 (DLD-1; racemates): 2.35 nM
SMILES: COc1ccc([C@@]23Oc4cc(-c5ncco5)ccc4[C@]2(O)[C@H](O)[C@H](C(=O)N(C)C)[C@H]3c2ccccc2)cc1 (racemic) [Racemate of compound 57]

IC50 (HCC1954): 2.15 nM
IC50 (DLD-1; racemates): 2.99 nM
SMILES: COc1ccc([C@@]23Oc4cc(-c5ncco5)cc(OC)c4[C@]2(O)[C@@H](C#N)C[C@H]3c2cccc(N)c2)cc1 (racemic) [Racemate of compound 86]

IC50 (DLD-1; racemates): 2.84 nM
SMILES: COc1ccc([C@@]23Oc4cc(-c5ncco5)cc(OC)c4[C@]2(O)[C@@H](CNC(=O)NO)C[C@H]3c2ccccc2)cc1 (racemic) [Racemate of compound 87]

IC50 (DLD-1; racemates): 1.35 nM
SMILES: COc1ccc([C@@]23Oc4cc(-c5ncco5)cc(OC)c4[C@]2(O)[C@@H](CNC(=O)[C@H](CO)N(C)C)C[C@H]3c2ccccc2)cc1 (racemic) [Racemate of compound 89]

IC50 (DLD-1; racemates): 2.16 nM
SMILES: COc1ccc([C@@]23Oc4cc(-c5ncco5)cc(OC)c4[C@]2(O)[C@@H](CNC(=O)COCCO)C[C@H]3c2ccccc2)cc1 (racemic) [Racemate of compound 91]

IC50 (HCC1954): 1.5 nM
SMILES: COc1ccc([C@@]23Oc4cc(-c5ncco5)cc(OC)c4[C@]2(O)[C@@H](CNC(=O)CN(C)C)C[C@H]3c2cccc(N)c2)cc1 (racemic) [Racemate of compound 93]

IC50 (DLD-1; racemates): 0.92 nM
SMILES: COc1ccc([C@@]23Oc4cc(-c5nc(CO)co5)cc(OC)c4[C@]2(O)[C@@H](N(C)C)C[C@H]3c2ccccc2)cc1 (racemic) [Racemate of compound 107]

IC50 (HCC1954): 2.98 nM
SMILES: COc1cc(-c2cscn2)cc2c1[C@]1(O)[C@H](O)[C@H](C(=O)N(C)C)[C@@H](c3cccc(N)c3)[C@]1(c1ccc(C#N)cc1)O2 (racemic) [Racemate of compound 111]

IC50 (BT474; [1]): < 10 nM
SMILES: COc1ccc([C@@]23Oc4cc(-c5ncco5)cc(OC)c4[C@]2(O)[C@H](O)C[C@H]3c2cccc(N)c2)cc1 (single isomer, unassigned) [Compound 49]

IC50 (DLD-1; [1]): < 10 nM
IC50 (BT474; [1]): < 10 nM
SMILES: COc1ccc([C@@]23Oc4cc(-c5ncco5)cc(OC)c4[C@]2(O)[C@@H](CNC(=O)CN(C)C)C[C@H]3c2cccc(N)c2)cc1 (single isomer, unassigned) [Compound 93]

IC50 (DLD-1; [1]): < 10 nM
IC50 (BT474; [1]): < 10 nM
SMILES: COc1ccc([C@@]23Oc4cc(-c5ncco5)cc(OC)c4[C@]2(O)[C@@H](N(C)C)C[C@H]3c2cccc(N)c2)cc1 (single isomer, unassigned) [Compound 98]

IC50 (DLD-1; [1]): < 10 nM
IC50 (BT474; [1]): < 10 nM
SMILES: COc1cc(-c2ncco2)cc2c1[C@]1(O)[C@H](O)[C@H](C(=O)N(C)OC)[C@@H](c3cccc(N)c3)[C@]1(c1ccc(C#N)cc1)O2 [Compound 4]

SMILES: COc1ccc([C@@]23Oc4cc(OC)cc(OC)c4[C@]2(O)[C@H](O)[C@H](C(=O)N(C)C)[C@H]3c2ccccc2)cc1 [Rocaglamide, reference compound]
IC50 (NUGC-4): 8.25 nM
IC50 (NCI-N87): 9.32 nM
IC50 (MKN-45): 5.75 nM
IC50 (SNU-423): 14.4 nM
IC50 (Ls174T): 6.08 nM
IC50 (HCC1954): 2.66 nM
IC50 (DLD-1; racemates): 8.19 nM
IC50 (SK-OV-3): 8.52 nM
IC50 (BT474; racemates): 5.49 nM
